# From patent US20140213538A1, “LYSOPHOSPHATIDIC ACID RECEPTOR ANTAGONISTS” (InterMune, Inc., priority 2013, published 2014)
# Target: T1, LPA/S1P GPCR of interest (Homo sapiens, UniProt Q92633)
# T1 construct: host or cells: CHO
# Test: Beta-Arrestin based assay (PathHunter)
# Assay type: cell-based
# Procedure: CMV promoter based DNA constructs expressing a fusion of the LPA/S1P GPCR of interest and ProLink™ tag were used to transfect EA Parental™ CHO cells (DiscoverX, Fremont, Calif.) using a FuGENE® transfection kit (Roche). Beta-Arrestin based assays were conducted 24-48 hrs post transfection using PathHunter® assay kits (DiscoverX, Fremont, Calif.). Agonist and antagonist assays were performed in quadruplicate in white 384 well plates. End point luminescence data were plotted and fit to a 4 parameter logistic function to obtain IC50 values. For antagonist assays, an IC80 concentration of agonist (LPA) equal to 0.5 micromolar was used.
# T1 sequence (Q92633 whole entry): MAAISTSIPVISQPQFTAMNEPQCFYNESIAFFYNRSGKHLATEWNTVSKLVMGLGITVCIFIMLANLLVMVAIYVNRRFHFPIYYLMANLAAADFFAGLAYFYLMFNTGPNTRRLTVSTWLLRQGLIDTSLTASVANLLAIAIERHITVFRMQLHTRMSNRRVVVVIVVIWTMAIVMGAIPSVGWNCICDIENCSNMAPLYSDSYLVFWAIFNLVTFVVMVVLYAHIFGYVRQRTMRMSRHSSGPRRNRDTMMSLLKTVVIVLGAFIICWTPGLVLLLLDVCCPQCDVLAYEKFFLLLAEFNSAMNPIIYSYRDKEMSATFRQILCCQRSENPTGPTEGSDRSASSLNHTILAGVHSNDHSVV
row,EC50 [nM],Structure (SMILES)
1,50 to 500,C[C@@H](OC(=O)Nc1c(-c2cc3sc(-c4ccc(-c5nnc(C6(C(=O)O)CC6)s5)cc4)cc3s2)nnn1C)c1ccccc1 [IT288]
2,> 500,Cc1nsc(-c2cc3sc(-c4ccc(-c5nnc(C6(C(=O)O)CC6)s5)cc4)cc3s2)c1NC(=O)O[C@H](C)c1ccccc1 [IT289]
3,> 500,Cc1nsc(-c2cc3sc(-c4ccc5c(CC(=O)O)coc5c4)cc3s2)c1NC(=O)O[C@H](C)c1ccccc1 [IT290]
4,> 500,Cc1cc(-c2cc3sc(-c4snc(C)c4NC(=O)O[C@H](C)c4ccccc4)cc3s2)ccc1CC(=O)O [IT292]
5,50 to 500,C[C@@H](OC(=O)Nc1c(-c2cc3sc(-c4ccc(CC(=O)O)c(F)c4)cc3s2)nnn1C)c1ccccc1 [IT293]
6,50 to 500,Cc1nsc(-c2cc3sc(-c4ccc(CC(=O)O)c(F)c4)cc3s2)c1NC(=O)O[C@H](C)c1ccccc1 [IT294]
7,< 50,Cc1nsc(-c2cc3sc(-c4ccc(C5(C(=O)O)CC5)c(F)c4)cc3s2)c1NC(=O)O[C@H](C)c1ccccc1 [IT297]
8,50 to 500,C[C@@H](OC(=O)Nc1c(-c2cc3sc(-c4ccc5[nH]cc(CC(=O)O)c5c4)cc3s2)nnn1C)c1ccccc1 [IT298]
9,50 to 500,C[C@@H](OC(=O)Nc1c(-c2cc3sc(-c4ccc(C5(C(=O)O)CC5)cc4C(F)(F)F)cc3s2)nnn1C)c1ccccc1 [IT299]
10,> 500,Cc1nsc(-c2cc3sc(-c4ccc(CC(=O)O)c5ccccc45)cc3s2)c1NC(=O)O[C@H](C)c1ccccc1 [IT317]
11,> 500,C[C@@H](OC(=O)Nc1c(-c2cc3sc(-c4ccc(CC(=O)O)c5ccccc45)cc3s2)nnn1C)c1ccccc1 [IT318]
12,> 500,C[C@@H](OC(=O)Nc1c(-c2cc3sc(-c4ccc(CC(=O)O)c5ccccc45)cc3s2)cnn1C)c1ccccc1 [IT319]
13,> 500,C[C@@H](OC(=O)Nc1c(-c2cc3sc(-c4ccc(C5(C(=O)O)CC5)c5ccccc45)cc3s2)cnn1C)c1ccccc1 [IT320]
14,50 to 500,C[C@@H](OC(=O)Nc1c(-c2cc3sc(-c4ccc(C5(C(=O)O)CC5)c5ccccc45)cc3s2)nnn1C)c1ccccc1 [IT321]
15,> 500,Cc1nsc(-c2cc3sc(-c4ccc(C5(C(=O)O)CC5)c5ccccc45)cc3s2)c1NC(=O)O[C@H](C)c1ccccc1 [IT322]
16,50 to 500,Cc1cc(-c2cc3sc(-c4cnn(C)c4NC(=O)O[C@H](C)c4ccccc4)cc3s2)ccc1C1(C(=O)O)CC1 [IT323]
17,50 to 500,Cc1cc(-c2cc3sc(-c4nnn(C)c4NC(=O)O[C@H](C)c4ccccc4)cc3s2)ccc1C1(C(=O)O)CC1 [IT324]
18,50 to 500,Cc1cc(-c2cc3sc(-c4snc(C)c4NC(=O)O[C@H](C)c4ccccc4)cc3s2)ccc1C1(C(=O)O)CC1 [IT325]
19,50 to 500,Cc1nsc(-c2cc3sc(-c4cc(F)c(CC(=O)O)cc4F)cc3s2)c1NC(=O)O[C@H](C)c1ccccc1 [IT326]
20,50 to 500,C[C@@H](OC(=O)Nc1c(-c2cc3sc(-c4cc(F)c(CC(=O)O)cc4F)cc3s2)cnn1C)c1ccccc1 [IT327]
21,50 to 500,C[C@@H](OC(=O)Nc1c(-c2cc3sc(-c4cc(F)c(CC(=O)O)cc4F)cc3s2)nnn1C)c1ccccc1 [IT328]
22,50 to 500,COc1cc(-c2cc3sc(-c4cnn(C)c4NC(=O)O[C@H](C)c4ccccc4)cc3s2)ccc1C1(C(=O)O)CC1 [IT329]

row,EC50 [nM],Structure (SMILES)
1,50 to 500,COc1cc(-c2cc3sc(-c4nnn(C)c4NC(=O)O[C@H](C)c4ccccc4)cc3s2)ccc1C1(C(=O)O)CC1 [IT330]
2,50 to 500,COc1cc(-c2cc3sc(-c4snc(C)c4NC(=O)O[C@H](C)c4ccccc4)cc3s2)ccc1C1(C(=O)O)CC1 [IT331]
3,50 to 500,C[C@@H](OC(=O)Nc1c(-c2cc3sc(-c4ccc5occ(CC(=O)O)c5c4)cc3s2)cnn1C)c1ccccc1 [IT332]
4,50 to 500,Cc1nsc(-c2cc3sc(-c4ccc5occ(CC(=O)O)c5c4)cc3s2)c1NC(=O)O[C@H](C)c1ccccc1 [IT333]
5,> 500,C[C@@H](OC(=O)Nc1c(-c2cc3sc(-c4ccc5occ(C6(C(=O)O)CC6)c5c4)cc3s2)cnn1C)c1ccccc1 [IT334]
6,> 500,C[C@@H](OC(=O)Nc1c(-c2cc3sc(-c4ccc5occ(C6(C(=O)O)CC6)c5c4)cc3s2)nnn1C)c1ccccc1 [IT335]
7,> 500,Cc1nsc(-c2cc3sc(-c4ccc(CC(=O)O)cc4C(F)(F)F)cc3s2)c1NC(=O)O[C@H](C)c1ccccc1 [IT337]
8,50 to 500,Cc1cc(-c2cc3sc(-c4snc(C)c4NC(=O)O[C@H](C)c4ccccc4)cc3s2)c(F)cc1C1(C(=O)O)CC1 [IT338]
9,50 to 500,Cc1cc(-c2cc3sc(-c4cnn(C)c4NC(=O)O[C@H](C)c4ccccc4)cc3s2)c(F)cc1C1(C(=O)O)CC1 [IT339]
10,50 to 500,Cc1cc(-c2cc3sc(-c4nnn(C)c4NC(=O)O[C@H](C)c4ccccc4)cc3s2)c(F)cc1C1(C(=O)O)CC1 [IT340]
11,< 50,Cc1cc(C2(C(=O)O)CC2)c(F)cc1-c1cc2sc(-c3cnn(C)c3NC(=O)O[C@H](C)c3ccccc3)cc2s1 [IT342]
12,< 50,Cc1cc(C2(C(=O)O)CC2)c(F)cc1-c1cc2sc(-c3snc(C)c3NC(=O)O[C@H](C)c3ccccc3)cc2s1 [IT343]
13,< 50,Cc1nsc(-c2cc3sc(-c4cc(F)c(C5(C(=O)O)CC5)cc4F)cc3s2)c1NC(=O)O[C@H](C)c1ccccc1 [IT346]
14,> 500,COc1cc(-c2cc3sc(-c4cnn(C)c4NC(=O)O[C@H](C)c4ccccc4)cc3s2)c(OC)cc1CC(=O)O [IT349]
15,> 500,COc1cc(-c2cc3sc(-c4nnn(C)c4NC(=O)O[C@H](C)c4ccccc4)cc3s2)c(OC)cc1CC(=O)O [IT350]
16,> 500,COc1cc(-c2cc3sc(-c4snc(C)c4NC(=O)O[C@H](C)c4ccccc4)cc3s2)c(OC)cc1CC(=O)O [IT351]
17,> 500,Cc1nsc(-c2cc3sc(-c4ccc5occ(C6(C(=O)O)CC6)c5c4)cc3s2)c1NC(=O)O[C@H](C)c1ccccc1 [IT352]
18,50 to 500,C[C@@H](OC(=O)Nc1c(-c2cc3sc(-c4ccc5scc(CC(=O)O)c5c4)cc3s2)cnn1C)c1ccccc1 [IT353]
19,> 500,Cc1nsc(-c2cc3sc(-c4ccc5scc(CC(=O)O)c5c4)cc3s2)c1NC(=O)O[C@H](C)c1ccccc1 [IT354]
20,50 to 500,Cc1noc(-c2ccc(-c3ccc(Oc4cccc(C(=O)O)c4)cc3)cc2)c1NC(=O)O[C@H](C)c1ccccc1 [IT356]
21,50 to 500,COc1cc(C2(C(=O)O)CC2)ccc1-c1cc2sc(-c3nnn(C)c3NC(=O)O[C@H](C)c3ccccc3)cc2s1 [IT357]
22,50 to 500,COc1cc(-c2cc3sc(-c4nnn(C)c4NC(=O)O[C@H](C)c4ccccc4)cc3s2)cnc1C1(C(=O)O)CC1 [IT358]

row,EC50 [nM],Structure (SMILES)
1,50 to 500,COc1cc(-c2cc3sc(-c4snc(C)c4NC(=O)O[C@H](C)c4ccccc4)cc3s2)cnc1C1(C(=O)O)CC1 [IT359]
2,> 500,COc1cc(C2(C(=O)O)CC2)ccc1-c1cc2sc(-c3snc(C)c3NC(=O)O[C@H](C)c3ccccc3)cc2s1 [IT360]
3,< 50,Cc1cc(C2(C(=O)O)CC2)ccc1-c1cc2sc(-c3snc(C)c3NC(=O)O[C@H](C)c3ccccc3)cc2s1 [IT361]
4,> 500,C[C@@H](OC(=O)Nc1c(-c2cc3sc(-c4ccc(CC(=O)O)cc4C(F)(F)F)cc3s2)cnn1C)c1ccccc1 [IT362]
5,> 500,C[C@@H](OC(=O)Nc1c(-c2cc3sc(-c4ccc(CC(=O)O)cc4C(F)(F)F)cc3s2)nnn1C)c1ccccc1 [IT363]
6,< 50,Cc1nsc(-c2cc3sc(-c4ccc(C5(C(=O)O)CC5)c(F)c4F)cc3s2)c1NC(=O)O[C@H](C)c1ccccc1 [IT366]
7,< 50,C[C@@H](OC(=O)Nc1c(-c2cc3sc(-c4ccc(C5(C(=O)O)CC5)c(Cl)c4)cc3s2)cnn1C)c1ccccc1 [IT367]
8,> 500,Cc1noc(-c2ccc(-c3ccc(Oc4ccc(C(=O)O)cc4)cc3)cc2)c1NC(=O)O[C@H](C)c1ccccc1 [IT368]
9,50 to 500,C[C@@H](OC(=O)Nc1c(-c2cc3sc(-c4ccc5c(CC(=O)O)coc5c4)cc3s2)nnn1C)c1ccccc1 [IT369]
10,> 500,C[C@@H](OC(=O)Nc1c(-c2cc3sc(-c4ccc5scc(C6(C(=O)O)CC6)c5c4)cc3s2)cnn1C)c1ccccc1 [IT370]
11,> 500,C[C@@H](OC(=O)Nc1c(-c2ccc(C#CC(=O)O)cc2)cnn1C)c1ccccc1 [IT371]
12,> 500,C[C@@H](OC(=O)Nc1c(-c2cc3sc(-c4ccc5scc(C6(C(=O)O)CC6)c5c4)cc3s2)nnn1C)c1ccccc1 [IT372]
13,> 500,Cc1nsc(-c2cc3sc(-c4ccc5scc(C6(C(=O)O)CC6)c5c4)cc3s2)c1NC(=O)O[C@H](C)c1ccccc1 [IT373]
14,> 500,C[C@@H](OC(=O)Nc1c(-c2cc3sc(-c4ccc5c(CC(=O)O)c[nH]c5c4)cc3s2)cnn1C)c1ccccc1 [IT377]
15,> 500,C[C@@H](OC(=O)Nc1c(-c2cc3sc(-c4ccc5c(CC(=O)O)c[nH]c5c4)cc3s2)nnn1C)c1ccccc1 [IT378]
16,50 to 500,C[C@@H](OC(=O)Nc1c(-c2cc3sc(-c4ccc(C5(C(=O)O)CC5)c(C(F)(F)F)c4)cc3s2)cnn1C)c1ccccc1 [IT379]
17,50 to 500,C[C@@H](OC(=O)Nc1c(-c2cc3sc(-c4ccc(C5(C(=O)O)CC5)c(C(F)(F)F)c4)cc3s2)nnn1C)c1ccccc1 [IT380]
18,50 to 500,Cc1nsc(-c2cc3sc(-c4ccc(C5(C(=O)O)CC5)c(C(F)(F)F)c4)cc3s2)c1NC(=O)O[C@H](C)c1ccccc1 [IT381]
19,> 500,COc1cc(CC(=O)O)c(F)cc1-c1cc2sc(-c3snc(C)c3NC(=O)O[C@H](C)c3ccccc3)cc2s1 [IT382]
20,> 500,C[C@@H](OC(=O)Nc1c(-c2cc3sc(-c4ccc(CC(=O)O)cc4OC(F)(F)F)cc3s2)cnn1C)c1ccccc1 [IT383]
21,> 500,Cc1nsc(-c2cc3sc(-c4ccc(CC(=O)O)cc4OC(F)(F)F)cc3s2)c1NC(=O)O[C@H](C)c1ccccc1 [IT384]
22,50 to 500,C[C@@H](OC(=O)Nc1c(-c2cc3sc(-c4ccc(C5(C(=O)O)CC5)cc4OC(F)(F)F)cc3s2)cnn1C)c1ccccc1 [IT385]
